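48-hour exposure; five concentrations; linearly interpolated endpoints. GI50 marks 50% less growth. TGI: concentration producing complete growth inhibition.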
Legend:
Experiment in all cases: NCI-60 cell line screen, 48 h
SK-MEL-5 melanoma = test system: SK-MEL-5 melanoma
MDA-MB-231 breast = test system: MDA-MB-231 breast
OVCAR-4 ovarian = test system: OVCAR-4 ovarian
SF-268 CNS = test system: SF-268 CNS
HCC-2998 colon = test system: HCC-2998 colon
SK-OV-3 ovarian = test system: SK-OV-3 ovarian
SF-295 CNS = test system: SF-295 CNS
OVCAR-5 ovarian = test system: OVCAR-5 ovarian
MCF7 breast = test system: MCF7 breast
TK-10 renal = test system: TK-10 renal
RXF 393 renal = test system: RXF 393 renal
COLO 205 colon = test system: COLO 205 colon
NCI-H226 lung = test system: NCI-H226 lung
MDA-MB-435 = test system: MDA-MB-435
SNB-75 CNS = test system: SNB-75 CNS
SK-MEL-2 melanoma = test system: SK-MEL-2 melanoma
CAKI-1 renal = test system: CAKI-1 renal
K-562 leukemia = test system: K-562 leukemia
HOP-92 NSCLC = test system: HOP-92 NSCLC
SK-MEL-28 melanoma = test system: SK-MEL-28 melanoma
U251 CNS = test system: U251 CNS
SF-539 CNS = test system: SF-539 CNS
T-47D breast = test system: T-47D breast
HL-60(TB) leukemia = test system: HL-60(TB) leukemia
IGROV1 ovarian = test system: IGROV1 ovarian
CCRF-CEM leukemia = test system: CCRF-CEM leukemia
EKVX NSCLC = test system: EKVX NSCLC
A498 renal = test system: A498 renal
KM12 colon = test system: KM12 colon
NCI-H522 lung = test system: NCI-H522 lung
HCT-116 colon = test system: HCT-116 colon
UACC-62 melanoma = test system: UACC-62 melanoma
786-0 renal = test system: 786-0 renal
LOX IMVI melanoma = test system: LOX IMVI melanoma
HOP-62 NSCLC = test system: HOP-62 NSCLC
NCI/ADR-RES ovarian = test system: NCI/ADR-RES ovarian
DU-145 prostate = test system: DU-145 prostate
SW-620 colon = test system: SW-620 colon
MOLT-4 leukemia = test system: MOLT-4 leukemia
SNB-19 CNS = test system: SNB-19 CNS
HCT-15 colon = test system: HCT-15 colon
HT29 colon = test system: HT29 colon
OVCAR-3 ovarian = test system: OVCAR-3 ovarian
M14 melanoma = test system: M14 melanoma
UO-31 renal = test system: UO-31 renal
SN12C renal = test system: SN12C renal
NCI-H23 lung = test system: NCI-H23 lung
UACC-257 melanoma = test system: UACC-257 melanoma
ACHN renal = test system: ACHN renal
OVCAR-8 ovarian = test system: OVCAR-8 ovarian
BT-549 breast = test system: BT-549 breast
A549 NSCLC = test system: A549 NSCLC
PC-3 prostate = test system: PC-3 prostate
MALME-3M melanoma = test system: MALME-3M melanoma
NCI-H460 lung = test system: NCI-H460 lung

How did the GI50 (SK-MEL-5 melanoma) turn out when `FC(F)(F)c1cccc(Oc2ccc(Nc3ncnc4ccc(OCCCN5CCOCC5)cc34)cc2Cl)c1` was run?
Its GI50 is 1.75 µM.

And the TGI (SK-MEL-5 melanoma)?
Its TGI is 3.15 µM.

And the GI50 (MDA-MB-231 breast)?
Its GI50 is 1.8 µM.

What about the TGI (MDA-MB-231 breast) of the same molecule?
The TGI was 3.72 µM.

And the GI50 (OVCAR-4 ovarian)?
Its GI50 is 2.52 µM.

And the TGI (OVCAR-4 ovarian)?
Its TGI is 12.7 µM.

And the GI50 (SF-268 CNS)?
The GI50 was 2.06 µM.

And the TGI (SF-268 CNS)?
The TGI was 6.82 µM.

And the GI50 (HCC-2998 colon)?
Its GI50 is 1.72 µM.

What about the TGI (HCC-2998 colon) of the same molecule?
Its TGI is 3.34 µM.

What about the GI50 (SK-OV-3 ovarian) of the same molecule?
The GI50 was 1.38 µM.

And the TGI (SK-OV-3 ovarian)?
The TGI was 15.5 µM.

And the GI50 (SF-295 CNS)?
The GI50 was 1.75 µM.

And the TGI (SF-295 CNS)?
Its TGI is 3.49 µM.

And the GI50 (OVCAR-5 ovarian)?
The GI50 was 2.45 µM.

What about the TGI (OVCAR-5 ovarian) of the same molecule?
The TGI was 7.76 µM.

And the GI50 (MCF7 breast)?
Its GI50 is 1.74 µM.

What about the TGI (MCF7 breast) of the same molecule?
Its TGI is 5.17 µM.

What about the GI50 (TK-10 renal) of the same molecule?
The GI50 was 2.02 µM.

What about the TGI (TK-10 renal) of the same molecule?
Its TGI is 9.74 µM.

What about the GI50 (RXF 393 renal) of the same molecule?
Its GI50 is 1.76 µM.

And the TGI (RXF 393 renal)?
The TGI was 4.03 µM.

What about the GI50 (COLO 205 colon) of the same molecule?
The GI50 was 2 µM.

What about the TGI (COLO 205 colon) of the same molecule?
The TGI was 4.47 µM.

And the GI50 (NCI-H226 lung)?
The GI50 was 15 µM.

What about the TGI (NCI-H226 lung) of the same molecule?
Its TGI is 41 µM.

What about the GI50 (MDA-MB-435) of the same molecule?
Its GI50 is 1.63 µM.

And the TGI (MDA-MB-435)?
The TGI was 3.39 µM.

And the GI50 (SNB-75 CNS)?
The GI50 was 1.45 µM.

And the TGI (SNB-75 CNS)?
Its TGI is 7.33 µM.

And the GI50 (SK-MEL-2 melanoma)?
The GI50 was 2.54 µM.

And the TGI (SK-MEL-2 melanoma)?
Its TGI is 6.1 µM.

What about the GI50 (CAKI-1 renal) of the same molecule?
The GI50 was 1.34 µM.

What about the TGI (CAKI-1 renal) of the same molecule?
The TGI was 6.62 µM.

And the GI50 (K-562 leukemia)?
The GI50 was 1.5 µM.

And the TGI (K-562 leukemia)?
Its TGI is 5.47 µM.

And the GI50 (HOP-92 NSCLC)?
The GI50 was 1.76 µM.

What about the TGI (HOP-92 NSCLC) of the same molecule?
The TGI was 7.82 µM.

What about the GI50 (SK-MEL-28 melanoma) of the same molecule?
Its GI50 is 1.64 µM.

What about the TGI (SK-MEL-28 melanoma) of the same molecule?
Its TGI is 3.01 µM.

What about the GI50 (U251 CNS) of the same molecule?
The GI50 was 1.9 µM.

And the TGI (U251 CNS)?
The TGI was 4.19 µM.

What about the GI50 (SF-539 CNS) of the same molecule?
Its GI50 is 1.86 µM.

And the TGI (SF-539 CNS)?
The TGI was 3.33 µM.

And the GI50 (T-47D breast)?
Its GI50 is 1.29 µM.

What about the TGI (T-47D breast) of the same molecule?
The TGI was 6.35 µM.

What about the GI50 (HL-60(TB) leukemia) of the same molecule?
Its GI50 is 2.03 µM.

And the TGI (HL-60(TB) leukemia)?
Its TGI is 4.88 µM.

And the GI50 (IGROV1 ovarian)?
The GI50 was 1.01 µM.

What about the TGI (IGROV1 ovarian) of the same molecule?
Its TGI is 3.16 µM.

What about the GI50 (CCRF-CEM leukemia) of the same molecule?
Its GI50 is 2.77 µM.

What about the TGI (CCRF-CEM leukemia) of the same molecule?
Its TGI is 11.2 µM.

And the GI50 (EKVX NSCLC)?
The GI50 was 0.872 µM.

What about the TGI (EKVX NSCLC) of the same molecule?
The TGI was 8.47 µM.

And the GI50 (A498 renal)?
The GI50 was 2.37 µM.

And the TGI (A498 renal)?
The TGI was 12.8 µM.

What about the GI50 (KM12 colon) of the same molecule?
The GI50 was 2.29 µM.

What about the TGI (KM12 colon) of the same molecule?
The TGI was 5.59 µM.

And the GI50 (NCI-H522 lung)?
The GI50 was 0.833 µM.

What about the TGI (NCI-H522 lung) of the same molecule?
The TGI was 3.3 µM.

And the GI50 (HCT-116 colon)?
Its GI50 is 1.62 µM.

What about the TGI (HCT-116 colon) of the same molecule?
Its TGI is 3.08 µM.

And the GI50 (UACC-62 melanoma)?
The GI50 was 1.7 µM.

What about the TGI (UACC-62 melanoma) of the same molecule?
Its TGI is 3.13 µM.

What about the GI50 (786-0 renal) of the same molecule?
Its GI50 is 1.51 µM.

And the TGI (786-0 renal)?
Its TGI is 3.11 µM.

And the GI50 (LOX IMVI melanoma)?
Its GI50 is 1.71 µM.

And the TGI (LOX IMVI melanoma)?
Its TGI is 3.45 µM.

What about the GI50 (HOP-62 NSCLC) of the same molecule?
Its GI50 is 2.33 µM.

And the TGI (HOP-62 NSCLC)?
Its TGI is 5.18 µM.

And the GI50 (NCI/ADR-RES ovarian)?
The GI50 was 2.82 µM.

And the TGI (NCI/ADR-RES ovarian)?
The TGI was 13.8 µM.

What about the GI50 (DU-145 prostate) of the same molecule?
Its GI50 is 2.42 µM.

And the TGI (DU-145 prostate)?
Its TGI is 10.3 µM.

What about the GI50 (SW-620 colon) of the same molecule?
The GI50 was 1.69 µM.

And the TGI (SW-620 colon)?
The TGI was 3.23 µM.

What about the GI50 (MOLT-4 leukemia) of the same molecule?
The GI50 was 1.97 µM.

And the TGI (MOLT-4 leukemia)?
Its TGI is 6.41 µM.

What about the GI50 (SNB-19 CNS) of the same molecule?
Its GI50 is 2.34 µM.

And the TGI (SNB-19 CNS)?
The TGI was 7.15 µM.

What about the GI50 (HCT-15 colon) of the same molecule?
The GI50 was 1.48 µM.

What about the TGI (HCT-15 colon) of the same molecule?
Its TGI is 3.16 µM.

And the GI50 (HT29 colon)?
The GI50 was 1.75 µM.

What about the TGI (HT29 colon) of the same molecule?
The TGI was 3.93 µM.

And the GI50 (OVCAR-3 ovarian)?
The GI50 was 1.46 µM.

And the TGI (OVCAR-3 ovarian)?
The TGI was 3.56 µM.

What about the GI50 (M14 melanoma) of the same molecule?
Its GI50 is 1.75 µM.

And the TGI (M14 melanoma)?
The TGI was 3.51 µM.

What about the GI50 (UO-31 renal) of the same molecule?
Its GI50 is 1.19 µM.

And the TGI (UO-31 renal)?
The TGI was 2.5 µM.

And the GI50 (SN12C renal)?
The GI50 was 2.2 µM.

What about the TGI (SN12C renal) of the same molecule?
Its TGI is 11.8 µM.

And the GI50 (NCI-H23 lung)?
The GI50 was 3.19 µM.

What about the TGI (NCI-H23 lung) of the same molecule?
The TGI was 13.4 µM.

And the GI50 (UACC-257 melanoma)?
The GI50 was 2.03 µM.

And the TGI (UACC-257 melanoma)?
Its TGI is 4.52 µM.

And the GI50 (ACHN renal)?
Its GI50 is 1.62 µM.

What about the TGI (ACHN renal) of the same molecule?
The TGI was 11.1 µM.

What about the GI50 (OVCAR-8 ovarian) of the same molecule?
The GI50 was 3.22 µM.

What about the TGI (OVCAR-8 ovarian) of the same molecule?
The TGI was 21.2 µM.

What about the GI50 (BT-549 breast) of the same molecule?
The GI50 was 3.09 µM.

And the TGI (BT-549 breast)?
Its TGI is 16.7 µM.

And the GI50 (A549 NSCLC)?
The GI50 was 1.88 µM.

And the TGI (A549 NSCLC)?
The TGI was 5.64 µM.

What about the GI50 (PC-3 prostate) of the same molecule?
The GI50 was 2.4 µM.

What about the TGI (PC-3 prostate) of the same molecule?
The TGI was 8.58 µM.

And the GI50 (MALME-3M melanoma)?
The GI50 was 1.6 µM.

And the TGI (MALME-3M melanoma)?
Its TGI is 3.07 µM.

What about the GI50 (NCI-H460 lung) of the same molecule?
The GI50 was 1.9 µM.

What about the TGI (NCI-H460 lung) of the same molecule?
The TGI was 3.56 µM.
